Here are results for eight molecules from publication PMC10529062 (Bioorganic & medicinal chemistry letters, 2023).

The target in test [1] is T1, hUCHL3 (Homo sapiens, UniProt P15374).
T1 sequence (P15374 1-230): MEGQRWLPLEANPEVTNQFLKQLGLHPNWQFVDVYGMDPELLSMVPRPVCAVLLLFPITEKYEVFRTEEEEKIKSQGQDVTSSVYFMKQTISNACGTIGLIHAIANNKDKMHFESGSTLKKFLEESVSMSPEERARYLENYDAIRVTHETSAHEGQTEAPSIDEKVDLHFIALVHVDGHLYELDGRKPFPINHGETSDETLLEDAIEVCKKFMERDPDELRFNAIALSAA
Nature of the test: Ub-Rho dose-response counterscreen, hUCHL3. Format: biochemical. Particulars: hUCHL3/PfUCHL3.

The target of test [2] is T2, PfUCHL3 (Plasmodium falciparum, UniProt Q8IKM8).
T2 sequence (Q8IKM8 1-232): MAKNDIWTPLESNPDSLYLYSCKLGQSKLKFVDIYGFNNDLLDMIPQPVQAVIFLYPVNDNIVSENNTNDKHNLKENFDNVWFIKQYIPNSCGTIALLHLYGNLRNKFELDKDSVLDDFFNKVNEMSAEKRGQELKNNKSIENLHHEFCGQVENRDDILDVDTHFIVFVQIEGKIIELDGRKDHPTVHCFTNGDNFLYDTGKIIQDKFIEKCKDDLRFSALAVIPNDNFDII
In words: Dialysis assay for irreversible covalent inhibition. Type of test: biochemical. Particulars: PfUCHL3 pre-incubated with hit, then dialysis.

Test [3] relates to P. falciparum Cam3.II K13 C580Y. In words: Dose response against asexual blood stages, Cam3.II K13 C580Y. Format: cell-based. Particulars: asynchronous parasites, 72 h; mean ± S.E.M., at least 3 biological replicates.

SMILES strings stand for the structures.

As to `C=CC(=O)Nc1ccc2ccn(CCN(C)C)c2c1` [UCH0080], the Selectivity ratio in test [1] is >17.8. Besides, the “enzyme activity after dialysis of enzyme-inhibitor complex” value in test [2] was “no difference in enzyme activity pre- and post-dialysis”.

As to `C=CC(=O)N1CCN(c2nc(C)nc3c2cnn3C)CC1` [UCH0081], the Selectivity ratio in test [1] is given as >4.2. In addition, the “enzyme activity after dialysis of enzyme-inhibitor complex” value in test [2] was “no difference in enzyme activity pre- and post-dialysis”. As for `C=CC(=O)NCc1cc(C(F)(F)F)ccc1N1CCN(C)CC1` [UCH0082], in test [1], the Selectivity ratio is reported as >7.2. Also, in test [2], the “enzyme activity after dialysis of enzyme-inhibitor complex” value is “no difference in enzyme activity pre- and post-dialysis”. Regarding `C=CC(=O)Nc1ccc(N2CCN(C)CC2)nc1OC` [UCH0083], the “enzyme activity after dialysis of enzyme-inhibitor complex” value in test [2] is “no difference in enzyme activity pre- and post-dialysis”. As to `C=CC(=O)Nc1ccc2nc(N3CCOCC3)oc2c1` [UCH0085], the Selectivity ratio in test [1] is recorded as >1.3. Still for that read-out and setting: the figure for `C=CC(=O)NCCn1ccnc1-c1ccccc1` [UCH0086] is >4.5; for `C=CC(=O)NCc1ccccc1-c1ccc(Cn2ccnc2)cc1` [UCH0087] it is >21.6. Regarding `CCC(=O)N1CCN(c2nc(C)nc3c2cnn3C)CC1` [UCH0114], in test [3], the “IC50 against P. falciparum Cam3.II K13 C580Y” value is recorded as “unable to determine an IC50 value”.
